Test results reported in patent publication US20200017496A1 (priority 2017, published 2020).

How the values were obtained:
Type in all cases: cell-based
[1] = system: Proteus mirabilis (PMI) isolates; assay: microbe, parasite or virus in culture; settings: AF1 @ 4 μg/mL
Method in brief: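 Log-phase bacteria at a final 5·10^5 CFU/mL in cation-adjusted Mueller-Hinton broth were incubated 16-20 h at 35° C in ambient air with compound alone or with an antibacterial. MIC was the lowest concentration preventing visible growth; combination MIC of the antibacterial was read at each compound concentration.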

[2] = system: Citrobacter freundii (CFR) isolates; assay: MIC of compounds alone and combined with antibacterials, broth microdilution (CLSI)
Method: (§1) Method 2: MIC of Compounds Alone and Combined with Antibacterials Against Bacterial Isolates.
(§2) Compounds of the present invention were assessed against genotyped bacterial strains (Table 3, 4) alone or in combination with an antibacterial (Table 2). […] Log phase bacterial suspensions were adjusted to a final density of 5·10^5 CFU/mL in cation-adjusted Mueller-Hinton broth (ca-MHB; Becton-Dickinson and Company) and added to each well (98 μL). Microplates were incubated for 16-20 h at 35° C. in ambient air. The MIC of the compounds was defined as the lowest concentration of said compounds that prevented bacterial growth as read by visual inspection. The MIC of ATB at each compound concentration was defined as the lowest concentration of ATB that prevented bacterial growth as read by visual inspection.

[3] = system: Enterobacter aerogenes (EAE) isolates; assay: as above; settings: AF1 @ 4 μg/mL
Method: as §1, §2

[4] = system: Klebsiella pneumoniae (KPN) isolates; assay: as above; settings: AF1 @ 4 μg/mL
Method: as §1, §2

COCC1=C(C(=O)O)N2C(=O)[C@@H](NC(=O)/C(=N\OC)c3csc(N)n3)[C@H]2SC1 [POD, Cefpodoxime]
MIC ATB in combination ([1]; PMI UFR82): 1 µg/mL
MIC ATB in combination ([1]; PMI UFR120): <=0.25 μg/mL
MIC ATB in combination ([1]; PMI UFR121): <=0.25 μg/mL
MIC ATB in combination ([1]; PMI UFR122): <=0.25 μg/mL
MIC ATB in combination ([1]; PMI UFR123): <=0.25 μg/mL
MIC ATB in combination ([1]; PMI UFR124): <=0.25 μg/mL
MIC ATB in combination ([1]; PMI UFR125): <=0.25 μg/mL
MIC ATB in combination ([1]; PMI UFR126): <=0.25 μg/mL
MIC ATB in combination ([1]; PMI UFR127): <=0.25 μg/mL
MIC ATB in combination ([1]; PMI UFR129): <=0.25 μg/mL
MIC ATB in combination ([1]; PMI UFR130): 0.5 µg/mL
MIC ATB in combination ([1]; PMI UFR237): <=0.25 μg/mL
MIC ATB in combination ([2]; CFR UFR10, AF1 @ 4 μg/mL): <=0.25 μg/mL
MIC ATB in combination ([2]; CFR UFR11, AF1 @ 4 μg/mL): 16 µg/mL
MIC ATB in combination ([2]; CFR UFR83, AF1 @ 4 μg/mL): >128 µg/mL
MIC ATB in combination ([2]; CFR UFR146, AF1 @ 4 μg/mL): 1 µg/mL
MIC ATB in combination ([2]; CFR UFR248, AF1 @ 4 μg/mL): 1 µg/mL
MIC ATB in combination ([2]; CFR UFR249, AF1 @ 4 μg/mL): <=0.25 μg/mL
MIC ATB in combination ([2]; CFR UFR250, AF1 @ 4 μg/mL): 0.5 µg/mL
MIC ATB in combination ([2]; strain CFR UFR253, antibacterial combined with AF1 @ 4 μg/mL): <=0.25 μg/mL
MIC ATB in combination ([2]; strain CFR UFR254, antibacterial combined with AF1 @ 4 μg/mL): <=0.25 μg/mL
MIC ATB in combination ([3]; EAE 49469): 8 µg/mL
MIC ATB in combination ([3]; EAE 200261): 4 µg/mL
MIC ATB in combination ([3]; EAE UFR199): 1 µg/mL
MIC ATB in combination ([3]; EAE UFR201): <=0.25 μg/mL
MIC ATB in combination ([3]; EAE UFR202): 2 µg/mL
MIC ATB in combination ([3]; EAE UFR213): 1 µg/mL
MIC ATB in combination ([4]; KPN 6299): <=0.25 μg/mL
MIC ATB in combination ([4]; KPN 110376): <=0.25 μg/mL
MIC ATB in combination ([4]; KPN 131119): <=0.25 μg/mL
MIC ATB in combination ([4]; KPN 140513): 4 µg/mL
MIC ATB in combination ([4]; KPN 160143): <=0.25 μg/mL
MIC ATB in combination ([4]; KPN 190128): 0.5 µg/mL
MIC ATB in combination ([4]; KPN 190270): 0.5 µg/mL
MIC ATB in combination ([4]; KPN 190425): <=0.25 μg/mL
MIC ATB in combination ([4]; KPN 190551): <=0.25 μg/mL
MIC ATB in combination ([4]; KPN 200047): <=0.25 μg/mL
MIC ATB in combination ([4]; KPN 200327): <=0.25 μg/mL
MIC ATB in combination ([4]; KPN 260251): <=0.25 μg/mL
MIC ATB in combination ([4]; KPN 260252): 4 µg/mL
MIC ATB in combination ([4]; KPN 260376): <=0.25 μg/mL
MIC ATB in combination ([4]; KPN 270077): 0.5 µg/mL
MIC ATB in combination ([4]; KPN 700603): 0.5 µg/mL
MIC ATB in combination ([4]; KPN ARA): <=0.25 μg/mL
MIC ATB in combination ([4]; KPN BAA-1898): 0.5 µg/mL
MIC ATB in combination ([4]; KPN LIB): <=0.25 μg/mL
MIC ATB in combination ([4]; KPN UFR22_O): <=0.25 μg/mL
MIC ATB in combination ([4]; KPN UFR23): <=0.25 μg/mL
MIC ATB in combination ([4]; KPN UFR24): 1 µg/mL
MIC ATB in combination ([4]; KPN UFR25): <=0.25 μg/mL
MIC ATB in combination ([4]; KPN UFR27): 4 µg/mL
MIC ATB in combination ([4]; KPN UFR28): <=0.25 μg/mL
MIC ATB in combination ([4]; KPN UFR65): 0.5 µg/mL
MIC ATB in combination ([4]; KPN UFR66): 2 µg/mL
MIC ATB in combination ([4]; KPN UFR67): 4 µg/mL
MIC ATB in combination ([4]; KPN UFR68): 1 µg/mL
MIC ATB in combination ([4]; KPN UFR76): >128 µg/mL
MIC ATB in combination ([4]; KPN UFR77): 4 µg/mL
MIC ATB in combination ([4]; KPN UFR78): 128 µg/mL
MIC ATB in combination ([4]; KPN UFR79): 4 µg/mL
MIC ATB in combination ([4]; KPN UFR80): 0.5 µg/mL
MIC ATB in combination ([4]; KPN UFR81): 4 µg/mL
MIC ATB in combination ([4]; KPN UFR215): 0.5 µg/mL
MIC ATB in combination ([4]; KPN UFR216): <=0.25 μg/mL
MIC ATB in combination ([4]; KPN UFR217): <=0.25 μg/mL
MIC ATB in combination ([4]; KPN UFR219): <=0.25 μg/mL
MIC ATB in combination ([4]; KPN UFR220): 4 µg/mL
MIC ATB in combination ([4]; KPN UFR221): 1 µg/mL
MIC ATB in combination ([4]; KPN UFR222): 8 µg/mL
MIC ATB in combination ([4]; KPN UFR227O): 4 µg/mL
